Data from patent US20200017496A1 (priority 2017, published 2020).
Read-outs that look alike come from different tables or passages of the source.

What was measured:
Assay in all cases: MIC of compounds alone and combined with antibacterials, broth microdilution (CLSI)
Type in all cases: cell-based
[1] = system: Enterobacter aerogenes (EAE) isolates; details: for MIC ATB in combination: AF1 @ 4 μg/mL
Method in brief: (§1)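 Inoculum 5·10^5 CFU/mL (final), log phase, ca-MHB; 16-20 h, 35° C, ambient air. MIC = lowest conc. with no visible growth; ATB MIC read at each compound level.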

[2] = system: Providencia stuartii (PST) isolates; details: for MIC ATB in combination: AF1 @ 4 μg/mL; for MIC: alone
Method in brief: as §1

[3] = system: Providencia rettgeri (PRE) isolates
Method in brief: as §1

[4] = system: Klebsiella oxytoca (KOX) isolates; details: for MIC ATB in combination: AF1 @ 4 μg/mL
Method in brief: as §1

[5] = system: Citrobacter koseri (CKR) isolates; details: for MIC ATB in combination: AF1 @ 4 μg/mL
Method in brief: as §1

[6] = system: Morganella morganii (MMO) isolates; details: for MIC ATB in combination: AF1 @ 4 μg/mL; for MIC: alone
Method in brief: as §1

[7] = system: Serratia marcescens (SMA) isolates
Method in brief: as §1

## C=CC1=C(C(=O)O)N2C(=O)[C@@H](NC(=O)/C(=N\O)c3csc(N)n3)[C@H]2SC1 [CDR, Cefdinir]
[1]; EAE 49469
  MIC ATB in combination: 16 µg/mL
[1]; EAE 200261
  MIC ATB in combination: 8 µg/mL
[1]; EAE UFR199
  MIC ATB in combination: 1 µg/mL
[1]; EAE UFR201
  MIC ATB in combination: <=0.25 μg/mL
[1]; EAE UFR202
  MIC ATB in combination: 4 µg/mL
[1]; EAE UFR213
  MIC ATB in combination: 4 µg/mL
[1]; Klebsiella aerogenes, strain EAE 200261 (TEM-x, AmpC), ATB alone, read-out: MIC
  MIC: > 256 µg/mL
[1]; Klebsiella aerogenes, strain EAE UFR199 (TEM-1b, SHV-12, KPC-2, OXA-9), ATB alone, read-out: MIC
  MIC: > 256 µg/mL
[2]; PST UFR94
  MIC ATB in combination: <=0.25 μg/mL
[2]; PST UFR95
  MIC ATB in combination: 1 µg/mL
[2]; PST UFR235
  MIC ATB in combination: 2 µg/mL
[3]; PRE UFR99, AF1 @ 4 μg/mL
  MIC ATB in combination: >128 µg/mL
[3]; strain PRE UFR236, antibacterial combined with AF1 @ 4 μg/mL
  MIC ATB in combination: 2 µg/mL
[4]; KOX UFR21
  MIC ATB in combination: 8 µg/mL
[4]; KOX UFR173
  MIC ATB in combination: 0.5 µg/mL
[4]; KOX UFR223
  MIC ATB in combination: <=0.25 μg/mL
[4]; KOX UFR224
  MIC ATB in combination: <=0.25 μg/mL
[4]; Klebsiella oxytoca, strain KOX UFR21 (TEM-1, CTX-M-15, OXA-48), ATB alone
  MIC: > 256 µg/mL
[4]; Klebsiella oxytoca, strain KOX UFR223 (SHV-11, OXA-48), ATB alone
  MIC: > 256 µg/mL
[4]; Klebsiella oxytoca, strain KOX UFR224 (CTX-M-15, OXA-48), ATB alone
  MIC: > 256 µg/mL
[5]; CKO ROU
  MIC ATB in combination: 2 µg/mL
[5]; CKO UFR149
  MIC ATB in combination: 32 µg/mL
[5]; CKO UFR150
  MIC ATB in combination: 4 µg/mL
[5]; Citrobacter koseri, strain CKO ROU (TEM-1, SHV-12, CTX-M-15, OXA-1, OXA-48), ATB alone
  MIC: > 256 µg/mL
[5]; Citrobacter koseri, strain CKO UFR150 (TEM-1, OXA-48), ATB alone
  MIC: > 256 µg/mL
[6]; MMO 200321
  MIC ATB in combination: 4 µg/mL
[6]; MMO UFR144
  MIC ATB in combination: 4 µg/mL
[6]; MMO UFR240
  MIC ATB in combination: 0.5 µg/mL
[6]; MMO UFR241
  MIC ATB in combination: 4 µg/mL
[6]; MMO UFR242
  MIC ATB in combination: 4 µg/mL
[6]; MMO UFR243
  MIC ATB in combination: 4 µg/mL
[6]; MMO UFR244
  MIC ATB in combination: 2 µg/mL
[6]; MMO UFR245
  MIC ATB in combination: 4 µg/mL
[6]; MMO UFR246
  MIC ATB in combination: 2 µg/mL
[6]; MMO UFR247
  MIC ATB in combination: 1 µg/mL
[7]; SMA UFR30, AF1 @ 4 μg/mL
  MIC ATB in combination: 1 µg/mL
[7]; SMA UFR134, AF1 @ 4 μg/mL
  MIC ATB in combination: 4 µg/mL
[7]; SMA UFR135, AF1 @ 4 μg/mL
  MIC ATB in combination: 16 µg/mL
[7]; SMA UFR136, AF1 @ 4 μg/mL
  MIC ATB in combination: 16 µg/mL
[7]; SMA UFR137, AF1 @ 4 μg/mL
  MIC ATB in combination: 1 µg/mL
[7]; SMA UFR138, AF1 @ 4 μg/mL
  MIC ATB in combination: 4 µg/mL
[7]; SMA UFR139, AF1 @ 4 μg/mL
  MIC ATB in combination: 4 µg/mL
[7]; SMA UFR141, AF1 @ 4 μg/mL
  MIC ATB in combination: 4 µg/mL
[7]; SMA UFR142, AF1 @ 4 μg/mL
  MIC ATB in combination: 8 µg/mL
[7]; SMA UFR143, AF1 @ 4 μg/mL
  MIC ATB in combination: 2 µg/mL
[7]; SMA UFR239, AF1 @ 4 μg/mL
  MIC ATB in combination: 16 µg/mL
[7]; Serratia marcescens, ATB alone, strain SMA UFR238 (OXA-48), read-out: MIC
  MIC: > 256 µg/mL
[7]; Serratia marcescens, strain SMA UFR30 (OXA-405), ATB alone, read-out: MIC
  MIC: > 256 µg/mL
[7]; Serratia marcescens, strain SMA UFR136 (TEM-1, SHV-12, KPC-2), ATB alone, read-out: MIC
  MIC: > 256 µg/mL
[7]; Serratia marcescens, strain SMA UFR141 (OXA-48), ATB alone, read-out: MIC
  MIC: > 256 µg/mL
[7]; Serratia marcescens, strain SMA UFR142 (OXA-48), ATB alone, read-out: MIC
  MIC: > 256 µg/mL
[7]; Serratia marcescens, strain SMA UFR143 (CTX-M-15, OXA-1, OXA-48), ATB alone, read-out: MIC
  MIC: > 256 µg/mL
[7]; strain SMA UFR238, antibacterial combined with AF1 @ 4 μg/mL
  MIC ATB in combination: 4 µg/mL

## NC(=O)[C@@H]1CC[C@@H]2CN1C(=O)N2OC(F)(F)C(=O)[O-].[Na+] [EA1]
[1]; EAE 49469, alone
  MIC: >32 µg/mL
[1]; EAE 200261, alone
  MIC: >32 µg/mL
[1]; EAE UFR199, alone
  MIC: 128 µg/mL
[1]; EAE UFR201, alone
  MIC: >32 µg/mL
[1]; EAE UFR202, alone
  MIC: >32 µg/mL
[1]; EAE UFR213, alone
  MIC: >32 µg/mL
[2]; PST UFR94
  MIC: >32 µg/mL
[2]; PST UFR95
  MIC: >32 µg/mL
[2]; PST UFR235
  MIC: 16 µg/mL
[3]; PRE UFR99, alone
  MIC: 32 µg/mL
[3]; strain PRE UFR236, compound alone
  MIC: >32 µg/mL
[4]; KOX UFR21, alone
  MIC: >32 µg/mL
[4]; KOX UFR173, alone
  MIC: >32 µg/mL
[4]; KOX UFR223, alone
  MIC: >32 µg/mL
[4]; KOX UFR224, alone
  MIC: >32 µg/mL
[5]; CKO ROU, alone
  MIC: 16 µg/mL
[5]; CKO UFR149, alone
  MIC: 16 µg/mL
[5]; CKO UFR150, alone
  MIC: >32 µg/mL
[6]; MMO 200321
  MIC: >32 µg/mL
[6]; MMO UFR144
  MIC: >32 µg/mL
[6]; MMO UFR240
  MIC: >32 µg/mL
[6]; MMO UFR241
  MIC: >32 µg/mL
[6]; MMO UFR242
  MIC: 128 µg/mL
[6]; MMO UFR243
  MIC: >32 µg/mL
[6]; MMO UFR244
  MIC: >32 µg/mL
[6]; MMO UFR245
  MIC: >32 µg/mL
[6]; MMO UFR246
  MIC: >32 µg/mL
[6]; MMO UFR247
  MIC: 64 µg/mL
[7]; SMA UFR30, alone
  MIC: >32 µg/mL
[7]; SMA UFR134, alone
  MIC: >32 µg/mL
[7]; SMA UFR135, alone
  MIC: >32 µg/mL
[7]; SMA UFR136, alone
  MIC: >32 µg/mL
[7]; SMA UFR137, alone
  MIC: >32 µg/mL
[7]; SMA UFR138, alone
  MIC: >32 µg/mL
[7]; SMA UFR139, alone
  MIC: >32 µg/mL
[7]; SMA UFR141, alone
  MIC: >32 µg/mL
[7]; SMA UFR142, alone
  MIC: >32 µg/mL
[7]; SMA UFR143, alone
  MIC: 64 µg/mL
[7]; SMA UFR239, alone
  MIC: >32 µg/mL
[7]; strain SMA UFR238, compound alone
  MIC: >32 µg/mL
